According to ChEMBL document CHEMBL4706609, “Development of triazolothiadiazine derivatives as highly potent tubulin polymerization inhibitors: Structure-activity relationship, in vitro and in vivo study” (Eur J Med Chem, 2020):
Activity calls are given as the source filed them. The rule behind the calls is not given here.

How the values were obtained:
[1] = test system: A2780; test: Antiproliferative activity against paclitaxel-resistant human A2780 cells assessed as reduction in cell growth after 48 hrs by MTT assay; assay type: functional, cell-based; details: A2780, 48 h
[2] = test system: A549; test: Induction of apoptosis in human A549 cells assessed as necrotic cells at 2.5 nM measured after 24 hrs by Annexin V-FITC/propidium iodide staining based flow cytometry (reference value: 0.508%); assay type: functional
[3] = test system: A549; test: Induction of apoptosis in human A549 cells assessed as decrease in Bcl2 level upto 10 nM incubated for 24 hrs by Western blot analysis; assay type: functional, cell-based; details: dose nM <=10, time 24.0 hrs
[4] = test system: A549; test: Induction of apoptosis in human A549 cells assessed as increase in cleaved PARP level incubated for 24 hrs by Western blot analysis; assay type: functional, cell-based; details: dose nM <=10, time 24.0 hrs
[5] = Antitumor activity against human A549 cells xenografted in BALB/c mouse assessed as tumor volume at 8 mg/kg, ip measured for every 2 days upto 30 days (reference value: 652.13 mm^3); assay type: functional; details: time 2 day
[6] = test system: A549; test: Induction of apoptosis in human A549 cells assessed as early apoptotic cells at 2.5 nM measured after 24 hrs by Annexin V-FITC/propidium iodide staining based flow cytometry (reference value: 2.72%); assay type: functional
[7] = test system: A549; test: Antiproliferative activity against human A549 cells assessed as reduction in cell growth after 48 hrs by MTT assay; assay type: functional, cell-based; details: A549, 48 h
[8] = test system: HeLa; test: Antiproliferative activity against human HeLa cells assessed as reduction in cell growth after 48 hrs by MTT assay; assay type: functional, cell-based
[9] = test system: A549; test: Induction of apoptosis in human A549 cells assessed as early apoptotic cells at 10 nM measured after 24 hrs by Annexin V-FITC/propidium iodide staining based flow cytometry (reference value: 2.72%); assay type: functional
[10] = test system: HEK293; test: Cytotoxicity against HEK293 cells assessed as reduction in cell growth after 48 hrs by MTT assay; assay type: cell-based; details: Homo sapiens, HEK293, 48 h
[11] = test system: A549; test: Induction of apoptosis in human A549 cells assessed as viable cells at 5 nM measured after 24 hrs by Annexin V-FITC/propidium iodide staining based flow cytometry (reference value: 95.3%); assay type: functional; details: read-out: Activity
[12] = test system: A549; test: Induction of cell cycle arrest in human A549 cells assessed as inhibition of p-cdc2/cyclin B1 activity incubated for 24 hrs by Western blot analysis; assay type: functional, cell-based
[13] = test system: A549; test: Induction of apoptosis in human A549 cells assessed as viable cells at 2.5 nM measured after 24 hrs by Annexin V-FITC/propidium iodide staining based flow cytometry (reference value: 95.3%); assay type: functional; details: read-out: Activity
[14] = test system: A549; test: Induction of apoptosis in human A549 cells assessed as late apoptotic cells at 2.5 nM measured after 24 hrs by Annexin V-FITC/propidium iodide staining based flow cytometry (reference value: 1.51%); assay type: functional
[15] = (§1) Inhibition of porcine brain tubulin polymerization measured for 20 mins by spectrometric assay; assay type: tissue-based, Sus scrofa
[16] = species: Sus scrofa; test: as §1; assay type: tissue-based
[17] = Antitumor activity against human A549 cells xenografted in BALB/c mouse assessed as tumor weight at 60 mg/kg, ip measured every 2 days upto 30 days (reference value: 0.563 g); assay type: functional; details: time 2 day
[18] = test system: A549; test: Induction of cell cycle arrest in human A549 cells assessed as accumulation at G2/M phase at 20 nM incubated for 24 hrs by flow cytometry relative to control; assay type: functional
[19] = test system: Tubulin; test: Inhibition of tubulin polymerization in human A549 cells assessed as disruption of microtubule organization at 50 nM incubated for 6 hrs by immunofluorescent staining; assay type: cell-based
[20] = test system: HT-29; test: Antiproliferative activity against human HT-29 cells assessed as reduction in cell growth after 48 hrs by MTT assay; assay type: functional, cell-based; details: HT-29, 48 h
[21] = Toxicity in BALB/c mouse xenografted with human A549 cells assessed as change in body weight at 60 mg/kg, ip measured after 30 days; assay type: organism-based; details: in vivo, 720 h, time 30 day
[22] = Antitumor activity against human A549 cells xenografted in BALB/c mouse assessed as tumor weight at 8 mg/kg, ip measured every 2 days for every 2 days upto 30 days (reference value: 0.563 g); assay type: functional; details: time 2 day
[23] = test system: A549; test: Antiproliferative activity against cisplatin resistant human A549 cells assessed as reduction in cell growth after 48 hrs by MTT assay; assay type: functional, cell-based; details: A549, 48 h
[24] = test system: MCF7; test: Antiproliferative activity against human MCF7 cells assessed as reduction in cell growth after 48 hrs by MTT assay; assay type: functional, cell-based; details: MCF7, 48 h
[25] = Antitumor activity against human A549 cells xenografted in BALB/c mouse assessed as tumor growth inhibition at 15 mg/kg, ip measured every 2 days upto 30 days relative to control; assay type: functional; set-up: scale not given: the % may be the effect or the level left; details: time 30 day
[26] = Toxicity in BALB/c mouse xenografted with human A549 cells assessed as change in body weight at 15 mg/kg, ip measured after 30 days; assay type: organism-based; details: in vivo, 720 h, time 30 day
[27] = test system: A549; test: Induction of apoptosis in human A549 cells assessed as apoptotic cells upto 10 nM measured after 24 hrs by Annexin V-FITC/propidium iodide staining based flow cytometry; assay type: functional, cell-based; details: dose nM <=10, time 24.0 hrs
[28] = test system: A549; test: Induction of cell cycle arrest in human A549 cells assessed as accumulation at G2/M phase upto 20 nM incubated for 24 hrs by flow cytometry; assay type: functional, cell-based; details: dose nM <=20, time 24.0 hrs
[29] = test system: A549; test: Induction of apoptosis in human A549 cells assessed as early apoptotic cells at 5 nM measured after 24 hrs by Annexin V-FITC/propidium iodide staining based flow cytometry (reference value: 2.72%); assay type: functional
[30] = Antitumor activity against human A549 cells xenografted in BALB/c mouse assessed as tumor growth inhibition at 8 mg/kg, ip measured every 2 days for every 2 days upto 30 days relative to control; assay type: functional; set-up: scale not given: the % may be the effect or the level left; details: time 2 day
[31] = test system: A549; test: Induction of cell cycle arrest in human A549 cells assessed as increase in p-cdc2 expression upto 10 nM incubated for 24 hrs by Western blot analysis; assay type: functional, cell-based; details: dose nM <=10, time 24.0 hrs
[32] = test system: A549; test: Induction of apoptosis in human A549 cells assessed as viable cells at 10 nM measured after 24 hrs by Annexin V-FITC/propidium iodide staining based flow cytometry (reference value: 95.3%); assay type: functional; details: read-out: Activity
[33] = test system: A549; test: Induction of apoptosis in human A549 cells assessed as late apoptotic cells at 10 nM measured after 24 hrs by Annexin V-FITC/propidium iodide staining based flow cytometry (reference value: 1.51%); assay type: functional
[34] = Antitumor activity against human A549 cells xenografted in BALB/c mouse assessed as tumor weight at 15 mg/kg, ip measured every 2 days upto 30 days (reference value: 0.563 g); assay type: functional; details: time 2 day
[35] = Antitumor activity against human A549 cells xenografted in BALB/c mouse assessed as tumor volume at 15 mg/kg, ip measured for every 2 days upto 30 days (reference value: 652.13 mm^3); assay type: functional; details: time 2 day
[36] = test system: A549; test: Induction of apoptosis in human A549 cells assessed as necrotic cells at 5 nM measured after 24 hrs by Annexin V-FITC/propidium iodide staining based flow cytometry (reference value: 0.508%); assay type: functional
[37] = test system: A549; test: Induction of apoptosis in human A549 cells assessed as increase in cleaved caspase-3 level incubated for 24 hrs by Western blot analysis; assay type: functional, cell-based; details: dose nM <=10, time 24.0 hrs
[38] = test system: A549; test: Induction of apoptosis in human A549 cells assessed as necrotic cells at 10 nM measured after 24 hrs by Annexin V-FITC/propidium iodide staining based flow cytometry (reference value: 0.508%); assay type: functional
[39] = Antitumor activity against human A549 cells xenografted in BALB/c mouse assessed as tumor volume at 60 mg/kg, ip measured for every 2 days upto 30 days (reference value: 652.13 mm^3); assay type: functional; details: time 2 day
[40] = Antitumor activity against human A549 cells xenografted in BALB/c mouse assessed as tumor growth inhibition at 60 mg/kg, ip measured every 2 days upto 30 days relative to control; assay type: functional; set-up: scale not given: the % may be the effect or the level left; details: time 30 day
[41] = test system: A549; test: Induction of apoptosis in human A549 cells assessed as late apoptotic cells at 5 nM measured after 24 hrs by Annexin V-FITC/propidium iodide staining based flow cytometry (reference value: 1.51%); assay type: functional

IC50 [1]: 18800 nM
IC50 [7]: 50 nM
IC50 [8]: 4 nM
IC50 [15]: 1690 nM
IC50 [19]: Active
IC50 [20]: 23 nM
IC50 [23]: 3950 nM
IC50 [24]: 98 nM
SMILES: COc1cc(-c2nnc3n2N=C(c2ccc(C)cc2)CS3)cc(OC)c1OC
Activity [2]: 0.529%
Activity [3]: Active
Activity [4]: Dose-dependent effect
Activity [5]: 264 mm3
Activity [6]: 5.36%
Activity [9]: 8.66%
IC50 [10]: > 100000 nM
viability at 0.005 µM [11]: 82.8%
Activity [12]: Active
viability at 0.0025 µM [13]: 88.8%
Activity [14]: 5.36%
inhibition [16]: Dose-dependent effect
Activity [17]: 0.313 g
Activity [18]: 91.56%
Activity [21]: Non-Toxic
Activity [22]: 0.234 g
Activity [25]: 29.5%
Activity [26]: Non-Toxic
Activity [27]: Dose-dependent effect
Activity [28]: Dose-dependent effect
Activity [29]: 6.58%
Activity [30]: 58.4%
Activity [31]: Dose-dependent effect
viability at 0.01 µM [32]: 77.6%
Activity [33]: 13.1%
Activity [34]: 0.397 g
Activity [35]: 449.88 mm3
Activity [36]: 0.694%
Activity [37]: Dose-dependent effect
Activity [38]: 0.666%
Activity [39]: 354.12 mm3
Activity [40]: 44.4%
Activity [41]: 9.97%
